Experimental data as given in US10864179B2, “Histone deacetylase inhibitors for the use in the treatment of drug resistant melanoma” (STICHTING HET NEDERLANDS KANKER INSTITUUT-ANTONI VAN …, priority 2015, dated 2020).
Entries after “also recorded” stand apart in the source; their conditions may differ.

Assays:
[1] = system: A375R cells; assay: Long-term colony formation assay, vemurafenib-resistant A375R cells; conditions: for sensitivity of cells in proliferation assay, HDACi panel: Vorinostat 1 uM, 01994 4 uM, AR2 0.5 uM, Pracinostat 0.25 uM, Quisinostat 25 nM, 8 day
Experimental: Long-term colony formation assay of melanoma (A375 and A375R clone) cells. […] Cells were fixed and stained at day 12. […] Long-term colony formation assay of melanoma Mel888 parental and vemurafenib-resistant Mel888R cells (three different clones Mel888RC-A, B and C) were seeded at the same cell density in 6-well plates and cultured in presence of vorinostat (1 microM) and/or vemurafenib (2 microM). Cells were fixed and stained at day 10. […] Long-term colony formation assay of melanoma A375 parental and double-resistant cells seeded in 12-well plates and treated with 2 microM vemurafenib and/or 0.5 microM CDX101 (CDX). Medium and drugs were refreshed every 2-3 days. Cells were fixed and stained on day 10.
Medium and drugs were refreshed every 2-3 days. Cells were fixed and stained on day 10
Long-term colony formation assay of A375 parental and MAPKi resistant A375R, A375DR cells treated sulfasalazine and vorinostat. Medium and drugs were refreshed every 2-3 days. Cells were fixed and stained on day 10.
The A375 melanoma cell line was obtained from ATCC. MEL888 were gifts from D. Peeper (Amsterdam, The Netherlands). WM266-4 and Colo741 cell line were provided by R. Marais (Manchester, UK). These cells are BRAF mutated melanoma. All the cell lines were cultured in DMEM medium supplemented with 10% FBS, 1% penicillin/streptomycin and 2 mM I-glutamine. Vemurafenib-resistant A375 and MEL888 cells were generated by long term (at least 3 months) culturing with 2 microM vemurafenib. Dabrafenib-Trametinib combination resistant A375 cells were generated by long term (at least 3 months) culturing with 0.25 microM Dabrafenib and 10 nM Trametinib (MEK inhibitor). Vemurafenib-resistant ex-vivo clones were isolated from immunodeficient BalbC mice, which were long-term treated with PLX4720-chow (50 mg/kg). All the in vitro cell lines have been STR profiled.
Cells were seeded into 6-well plates (5*10^4˜1*10^5 cells per well) or 12-well plates (4*10^4 cells per well) and cultured both in the absence and presence of drugs as indicated.

[2] = system: A375 melanoma cells; assay: Long-term colony formation assay, A375 cells; type: cell-based, human; conditions: for effect of HDACi on the anti-proliferative effect of vemurafenib: HDACi together with vemurafenib; for proliferation in long-term colony formation assay: drug(s) without HDACi/BRAFi partner; for effect of HDACi on dabrafenib, trametinib and their combination: FIG. 3
Description: (§1) FIG. 1. BRAF inhibition is antagonized by HDAC inhibition in melanoma. A). […] The cells were fixed and stained at day 14. B). Short-term proliferation assay of melanoma (A375) cells. […] Error bars represent s.d. of biological triplicates. C,D). HDAC inhibitors and vemurafenib have antagonistic effects on MAPK pathway and HDAC inhibitors can rescue cells from vemurafenib-induced apoptosis. A375 were pre-treated with 1 microM vorinostat and 1 microM entinostat for 48 hrs and then treated with the combination of HDAC inhibitor (1 microM) and vemurafenib (1 microM) for additional 24 hrs. The levels of p-RB, p-MEK, MEK, cleaved PARP (cl. PARP) and ac-H3 were detected by western blot. β-actin served as the loading control.
(§2) FIG. 2. Other HDACi also confer resistance to vemurafenib. […] B).
(§3) FIG. 3. HDACi confers resistance to the combination of a MEK and a BRAF inhibitor in melanoma. A,B,C).

[3] = system: MEL888RC-A, B and C cells; assay: Long-term colony formation assay, vemurafenib-resistant MEL888 clones; type: cell-based; conditions: vorinostat 1 microM, CXD101 0.5 microM
Description: FIG. 5. […] Cells were fixed and stained on day 8.
(§4) These cells are BRAF mutated melanoma.

[4] = system: A375DR cells; assay: Long-term colony formation assay, dabrafenib/trametinib double-resistant A375DR cells; type: cell-based, human
Description: as §4

[5] = system: NRAS-mutant melanoma patients; conditions: phase II; cited from earlier work
[6] = system: SK-MEL-147R cells; assay: Long-term colony formation assay, MEKi-resistant SK-MEL-147R cells; type: cell-based, human
Experimental: (a). Long-term colony formation assay of SK-MEL-147 and MEKi-resistant SK-MEL-147R cells cultured in the presence of 1 μM vorinostat and/or 100 nM Trametinib.
(b). Long-term colony formation assay of SK-MEL-147 and SK-MEL-147R cells cultured in the presence of indicated concentrations of vorinostat and/or 5 mM NAC.
(§5) The A375, SK-Mel-147 and SK-Mel-2 melanoma cell lines were obtained from ATCC. […] Trametinib resistant SK-mel-147 and SK-mel-2 were generated by long term culturing with 25 nM (first month), 50 nM (second month) and 100 nM (third month) trametinib.
(§6) For full details, see ref. (Huang et al., 2009).

[7] = system: SK-MEL-2R cells; assay: Long-term colony formation assay, MEKi-resistant SK-MEL-2R cells; type: cell-based, human; conditions: 5 mM NAC
Experimental: (i). Long-term colony formation assay of SK-MEL-2 and MEKi-resistant SK-MEL-2R cells cultured in the presence of 1 μM vorinostat and/or 100 nM Trametinib.
(j) Long-term colony formation assay of SK-MEL-2 and SK-MEL-2R cells cultured in the presence of indicated concentrations of vorinostat and/or 5 mM NAC.
as §5, §6

[8] = system: A375 melanoma tumor xenografts; assay: A375 mouse xenografts; type: in vivo, BalbC immunodeficient nude mice; conditions: for tumor volume of PLX4720-resistant tumors after randomization: PLX4720 300 mg/kg in chow and/or vorinostat 100 mg/kg i.p.
Experimental: FIG. 7. HDACi is effective in treatment of BRAF inhibitor resistant melanoma in vivo. A,B). […] A375 melanoma cells were grown as tumor xenografts in BalbC immunodeficient nude mice. After tumor establishment (150-200 mm3), mice were treated with (A). vehicle, PLX4720 (40 mg/kg supplemented in the chow). Upon development of BRAF inhibitor resistance, mice receiving PLX4720 were randomized in four arms (B) receiving: vehicle, PLX4720 (300 mg/kg supplemented in the chow), Vorinostat (100 mg/kg i.p.) or PLX4720 (300 mg/kg supplemented in the chow) plus Vorinostat (100 mg/kg i.p.). C). Resistance to vemurafenib in A375 cells is mediated through reactivation of MAP kinase pathway. Biochemical responses of A375-resistant ex vivo clones and A375 parental cell line treated with 2 microM vemurafenib were documented by western blot analysis. Cells were harvested at 24 hrs after drug treatment. […] HSP90 served as the loading control. […].
A375 melanoma cells (2×10^6 cells per mouse) were injected subcutaneously into the right posterior flanks of 7-week-old immunodeficient BalbC or NMRI nude female mice (6 mice per group; Janvier Laboratories, The Netherlands). Tumor formation was monitored twice a week, and tumor volume based on caliper measurements was calculated by the modified ellipsoidal formula (tumor volume=½(length×width2)). When tumors reached a volume of approximately 0.3 cm^3, mice were randomized into treatment arms. PLX4720 (Plexxikon) was formulated in the chow by Research Diets dosed at 300 mg/kg and vorinostat was formulated in DMSO/saline solution, and it was dosed at 100 mg per kg daily by intraperitoneal injection. When resistance to PLX4720 arises in the group treated with PLX4720, mice bearing tumors of approximately 0.3 cm^3 were again randomized into the treatment arms with the same drug dosages. Animal experiments were approved by the Animal Ethics Committee of the Netherlands Cancer Institute and performed in accordance with institutional, national and European guidelines for Animal Care and Use.
To investigate whether HDACi treatment is a suitable therapy for MPAK pathway inhibitor resistant melanoma, e.g. BRAF inhibitor resistant melanoma, we injected parental vemurafenib sensitive A375 cells into a cohort of 24 BalbC immunodeficient nude mice. After tumors had reached an average volume of 150-200 mm3, we started treatment with vemurafenib by feeding the animals chow supplemented with 40 mg/kg of PLX4720. […] After that period, tumors began to increase in size, indicative of the development of drug resistance (FIG. 7A). When drug resistant tumors in the mice had reached a size of 800 mm3, mice were randomized to four cohorts that were treated either with:
A) no drug; B) PLX4270; C) PLX4270 and vorinostat; D) Vorinostat.

[9] = system: 4397A, 4397B, 4393R and 4393L cells; assay: Long-term colony formation assay, ex vivo PLX4720-resistant A375 clones; type: cell-based, human; conditions: four cell lines with in vivo acquired PLX4720 resistance
Description: FIG. 8. In vitro and ex vivo BRAF inhibitor-resistant clones are hypersensitive to HDACi.
We explanted four PLX4720 resistant tumors from mice immediately after acquisition of PLX4720 resistance in vivo and continued to culture these cells in vitro in the presence of BRAF inhibitor. These cells were designated 4397A, 4397B, 4393R and 4393L.

[10] = system: Colo741 melanoma cells; assay: Long-term colony formation assay, Colo741 cells; type: cell-based; conditions: for effect of HDACi on dabrafenib, trametinib and their combination: FIG. 3
Description: as §2, §3

[11] = system: p-MEK in A375 cells; assay: Western blot of MAPK pathway and apoptosis markers, A375 cells; type: cell-based, human; conditions: single drug
Description: as §1
FIG. 7. HDACi is effective in treatment of BRAF inhibitor resistant melanoma in vivo. A,B). […] A375 melanoma cells were grown as tumor xenografts in BalbC immunodeficient nude mice. After tumor establishment (150-200 mm3), mice were treated with (A). vehicle, PLX4720 (40 mg/kg supplemented in the chow). Upon development of BRAF inhibitor resistance, mice receiving PLX4720 were randomized in four arms (B) receiving: vehicle, PLX4720 (300 mg/kg supplemented in the chow), Vorinostat (100 mg/kg i.p.) or PLX4720 (300 mg/kg supplemented in the chow) plus Vorinostat (100 mg/kg i.p.). C). Resistance to vemurafenib in A375 cells is mediated through reactivation of MAP kinase pathway. […]

[12] = system: A375 melanoma cells; assay: Short-term proliferation assay (IncuCyte), A375 cells; type: cell-based, human; conditions: each drug alone, 1 microM
Description: as §1

[13] = system: A375 cells; assay: Staining of beta-galactosidase activity; type: cell-based, human
Description: β-galactosidase activity in cells was detected using Histochemical Staining Kit (CS0030-1KT) from Sigma-Aldrich. The detection was applied according to the manufacturer's instructions.

[14] = system: p-MEK in WM2664 melanoma cells; assay: Western blot of p-MEK, WM2664 cells; type: cell-based; conditions: single drug
Experimental: Cells were seeded in medium containing 10% fetal bovine serum (FBS) for indicated time, and then washed with PBS and lysed with RIPA buffer supplemented with protease inhibitor (cOmplete, Roche) and Phosphatase Inhibitor Cocktails II and III (Sigma). All lysates were freshly prepared and processed with Novex NuPAGE Gel Electrophoresis Systems (Invitrogen).

[15] = system: XCT (SLC7A11) mRNA; assay: qRT-PCR of SLC7A11 in SK-MEL-147 and SK-MEL-147R cells; conditions: 72 hours vorinostat treatment
Experimental: The relative mRNA levels were detected by qRT-PCR analysis after 72 hours vorinostat treatment. Error bars represent s.d. of measurement replicates (n=3, *** p<0.001, Student's t-test).
RNA isolation from cell lines harvested with TRIzol reagent (Invitrogen) according to the manufacturer's instruction. cDNA synthesis was performed with Maxima Universal First Strand cDNA Synthesis Kit (# K1661, Thermo scientific) according to manufacturer's instruction.

**Q.** For `CC(C)[C@H](C(=O)Nc1ccc(C(=O)NO)cc1)c1ccccc1` [AR2], which “sensitivity of cells in proliferation assay, HDACi panel” value (“sensitivity of cells … HDACi panel” for short) ([1]; A375R cells) is on record?
**A.** very sensitive

**Q.** With `Cc1nn(C)cc1CN1CCC(c2ccc(C(=O)Nc3ccccc3N)cc2)CC1` [CXD101] as the compound, how does the “effect of HDACi on the anti-proliferative effect of vemurafenib” value [2] read?
**A.** conferred resistance to vemurafenib

**Q.** And the “proliferation in long-term colony formation assay” value [2]?
**A.** mildly anti-proliferative

**Q.** And the “sensitivity of cells in long-term colony formation assay” value [3]?
**A.** hypersensitive

**Q.** And the “sensitivity of cells in long-term colony formation assay” value ([4]; 0.5 microM CDX101)?
**A.** very sensitive

**Q.** And the “sensitivity of cells in long-term colony formation assay” value ([4]; 0.5 microM CDX101, listed as CDX101)?
**A.** hypersensitive

**Q.** What does the source list for `Cn1cnc2c(F)c(Nc3ccc(Br)cc3F)c(C(=O)NOCCO)cc21` [MEK162]?
**A.** patients with objective responses [5]: 20%; patients with stable disease [5]: 43%

**Q.** Which results are given for `CC(=O)N[C@@H](CS)C(=O)O` [NAC, N-acetyl-L-cysteine]?
**A.** effect on the toxic effect of vorinostat ([6]; SK-MEL-147R cells, 5 mM NAC): rescued; effect on the toxic effects of vorinostat [7]: countered, at least in part

**Q.** What does the source list for `CCCS(=O)(=O)Nc1ccc(F)c(C(=O)c2c[nH]c3ncc(Cl)cc23)c1F` [PLX4720]?
**A.** tumor volume of PLX4720-resistant tumors after randomization [8]: continued tumor volume increase; period of tumor growth suppression before resistance ([8]; chow supplemented with 40 mg/kg of PLX4720): around 3 months; tumor growth ([8]; chow supplemented with 40 mg/kg of PLX4720, start at 150-200 mm3): significant suppression of tumor growth

**Q.** For `CCCCc1nc2cc(/C=C/C(=O)NO)ccc2n1CCN(CC)CC` [Pracinostat], which “sensitivity of cells … HDACi panel” value ([1]; A375R cells) is on record?
**A.** very sensitive

**Q.** For `Cn1cc(CNCC2CCN(c3ncc(C(=O)NO)cn3)CC2)c2ccccc21` [Quisinostat], which “sensitivity of cells … HDACi panel” value ([1]; A375R cells) is on record?
**A.** very sensitive

**Q.** What does the source list for `O=C(/C=C/c1cccc(S(=O)(=O)Nc2ccccc2)c1)NO` [belinostat]?
**A.** effect of HDACi on the anti-proliferative effect of vemurafenib [2]: conferred resistance to vemurafenib; proliferation in long-term colony formation assay [2]: mildly anti-proliferative; sensitivity of cells to HDACi [9]: very sensitive

**Q.** Which “proliferation in long-term colony formation assay” value [2] does the source give for `CC(C)(C)c1nc(-c2cccc(NS(=O)(=O)c3c(F)cccc3F)c2F)c(-c2ccnc(N)n2)s1` [dabrafenib] here?
**A.** effective in limiting proliferation

**Q.** And the “proliferation in long-term colony formation assay” value ([10]; MAPK pathway inhibitor(s) without HDACi)?
**A.** effective in limiting proliferation

**Q.** Which results are given for `Nc1ccccc1NC(=O)c1ccc(CNC(=O)OCc2cccnc2)cc1` [entinostat]?
**A.** effect of HDACi on dabrafenib, trametinib and their combination [2]: able to confer resistance to these drugs; p-MEK levels [11]: increases p-MEK levels; effect of HDACi on dabrafenib, trametinib and their combination [10]: able to confer resistance to these drugs; sensitivity of cells in long-term colony formation assay [3]: hypersensitive

**Q.** Which results are given for `O=C(O)c1cc(/N=N/c2ccc(S(=O)(=O)Nc3ccccn3)cc2)ccc1O` [sulfasalazine]?
**A.** toxicity in long-term colony formation assay ([4]; sulfasalazine 0.2 to 0.4 mM): toxic; toxicity in long-term colony formation assay ([1]; A375R cells, sulfasalazine 0.2 to 0.4 mM): toxic

**Q.** Which results are given for `O=C(CCCCCCC(=O)Nc1ccccc1)NO` [vorinostat]?
**A.** effect of HDACi on dabrafenib, trametinib and their combination [2]: able to confer resistance to these drugs; effect of HDACi on the anti-proliferative effect of vemurafenib [2]: almost completely negated the anti-proliferative effects of vemurafenib; proliferation in long-term colony formation assay [2]: inhibition of proliferation; cell proliferation (cell confluence, IncuCyte) [12]: restricted cell proliferation; acidic beta-galactosidase (senescence marker) [13]: induction of acidic beta-galactosidase; p-MEK levels [14]: increase in phospho-MEK (p-MEK); effect of HDACi on dabrafenib, trametinib and their combination [10]: able to confer resistance to these drugs; effect of HDACi on the anti-proliferative effect of vemurafenib ([10]; HDACi together with vemurafenib): conferred resistance to vemurafenib; tumor volume of PLX4720-resistant tumors after randomization [8]: rapid decline in tumor volume; also recorded: complete disappearance of the tumors after two months; also recorded: suppress melanoma growth; sensitivity of cells to HDACi [9]: very sensitive; sensitivity of cells in long-term colony formation assay ([6]; SK-MEL-147R versus parental SK-MEL-147, 1 μM vorinostat, 100 nM Trametinib): acquired significant sensitivity; XCT (SLC7A11) mRNA expression [15]: reduced XCT (also known as SLC7A11) mRNA expression; also recorded: suppressed SLC7A11 expression; sensitivity of cells in long-term colony formation assay ([1]; A375R cells versus parental A375, vorinostat 1 microM, vemurafenib 2 microM): far more sensitive to vorinostat than parental A375 cells; also recorded: massive inhibition of proliferation; also recorded: hypersensitive; sensitivity of cells in proliferation assay, HDACi panel ([1]; A375R cells): very sensitive
